Counter-ions that a name gives are not always drawn. Blank lines part the entries; values can stand above or below the compound they belong to.
Tests used:
[1] = tested on: gastric emptying; experiment: Effect on gastric emptying in vivo (radiolabeled phosphate recovered from stomach); set-up: species or system mice
Experimental: The effect of a test compound on gastric emptying can be assessed by dosing the compound and radiolabeled phosphate in a manner similar to that used to assess a compound's ability to inhibit NaPi-IIb in vivo. After bleeding the mice, they were sacrificed and their stomachs harvested. The harvested stomachs are digested in 10 ml of 1N NaOH overnight, and the recovered radiolabeled phosphate DPMs determined by scintillation counting. The compound mediated effect on the rate of gastric emptying is determined by comparing the dpms in the stomach of animals treated with compound, to that of animals treated with vehicle.

[2] = tested on: normal rats; experiment: Four-day in vivo tolerability/toxicity in normal rats; settings: administered in vivo to normal rats for four days
Source text: Compounds of the invention, for instance Example 1, show advantageous pharmacological properties, such as potency, in vivo distribution, in vivo efficacy, and favorable lack of toxicity in preclinical testing.

[3] = target: T1, NaPi-IIb (Mus musculus, UniProt Q9DBP0); experiment: Inhibition of NaPi-IIb in vivo: plasma counts after oral radioactive phosphate in mice
T1 construct: from tissue; host or cells: living C57Bl6 mice (gastrointestinal tract)
T1 sequence (Q9DBP0 1-697): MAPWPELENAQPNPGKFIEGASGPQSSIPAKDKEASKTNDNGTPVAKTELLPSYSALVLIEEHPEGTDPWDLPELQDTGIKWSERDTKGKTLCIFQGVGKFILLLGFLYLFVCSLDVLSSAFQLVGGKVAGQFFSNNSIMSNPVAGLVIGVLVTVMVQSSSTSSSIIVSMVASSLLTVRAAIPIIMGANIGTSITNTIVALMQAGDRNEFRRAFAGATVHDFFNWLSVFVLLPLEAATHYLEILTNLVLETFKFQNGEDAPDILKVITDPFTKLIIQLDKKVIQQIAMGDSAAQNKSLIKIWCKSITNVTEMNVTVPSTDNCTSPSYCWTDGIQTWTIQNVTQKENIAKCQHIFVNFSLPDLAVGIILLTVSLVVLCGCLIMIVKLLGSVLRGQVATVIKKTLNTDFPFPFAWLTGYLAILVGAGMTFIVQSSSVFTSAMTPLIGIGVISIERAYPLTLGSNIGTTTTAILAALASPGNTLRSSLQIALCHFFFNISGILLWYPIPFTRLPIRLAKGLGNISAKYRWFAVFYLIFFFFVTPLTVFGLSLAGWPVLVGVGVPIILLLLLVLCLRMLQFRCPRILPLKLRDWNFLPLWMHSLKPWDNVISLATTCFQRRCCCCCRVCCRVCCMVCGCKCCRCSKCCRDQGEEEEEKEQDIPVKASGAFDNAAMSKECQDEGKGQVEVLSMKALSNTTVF
Experimental: For test article and vehicle control preparation, add vehicle, 20% hydroxypropyl-beta-cyclodextrin (HPBCD) in water, to the test article. Sonicate to reduce particle size in an ultrasonic water bath as needed. If necessary, use a polytron to break down any visible particles in test article solution. The pH of the vehicle control is adjusted to 8.0 to 8.5 with 1N NaOH.
Radioactive phosphate preparation: Prepare a 16.25 mM Na2HPO4 solution using 0.9% saline as the vehicle. Mix until a clear solution is formed. Adjust pH to approximately 7.4. Filter using a sterile 0.2 μm polyethersulfone membrane. For the final preparation of the radioactive phosphate dosing solution, add 0.5 μl of stock H3^3PO4 per 1 mL of Na2HPO4. Mix thoroughly then sterile filter the H3^33PO4+Na2HPO4 solution using a 0.2 μm polyethersulfone membrane prior to dosing. Measure the radioactivity of each sample with the scintillation counter. If the DPMs are between 100,000 and 150,000 proceed with dosing.
In-vivo protocol: Male C57B16 male mice at the age of about 8-9 wks old are fasted for 16 hrs the day before the study. They are assigned to treatment groups based on body weight on the day of study. Mice are dosed orally with either the test article, prepared as described above, or vehicle control at a 10 mis/kg dose volume. Fifteen minutes later, the radioactive phosphate dosing solution is given by oral gavage. Fifteen minutes later, blood is collected by orbital bleed. Plasma is prepared and 50 μl of EDTA plasma from each mouse is mixed with 10 ml of scintillation fluid and the counts determined by scintillation counting. The effect of the test article is determined by comparing the counts in the plasma from the test article treated animals to counts in the plasma of the vehicle control treated animals [Percent Inhibition=[…]]. Percent inhibition is measured at 30 minutes post administration of the compound or vehicle, and at 15 minutes post administration of the labelled phosphate. Percent Inhibition for indicated Examples are illustrated in Table 3 below.
Alternative vehicles, for example poly-1-vinylpyrrolidone-co-vinyl acetate (PVP-VA), at varying concentrations, may be used. Example 1 can be assayed in PVP-VA, and for this study the compound is formulated as described in the solid dispersion preparation of Example 1, followed by dissolving in water then dosing by oral gavage. The vehicle control is water with varying concentrations of PVP-VA, matching the concentration found in the highest dose of Example 1, the lowest dose of Example 1, and an intermediate dose of Example 1. No effect of varying PVP-VA on the uptake of radiolabeled phosphate is observed over several studies, and thus all the vehicles are averaged to calculate percent inhibition.

[4] = target: T2, murine NaPi-IIb (Mus musculus, UniProt Q9DBP0); experiment: Inhibition of 33P uptake in mouse NaPi-IIb T-REX-CHO stable cell line; format: cell-based; settings: 60 min at RT, geometric mean (SD), read-out: m NaPi-IIb rel IC50 (nM), (SD)
T2 construct: expressed in transfected cells
T2 sequence (Q9DBP0 1-697): T1 sequence (Q9DBP0 1-697)
Experimental: Inhibition of ^33P uptake is measured in human and mouse NaPi-IIb T-REX™-CHO stable cell lines. cDNA for NaPi-IIb is subcloned in plasmid SLC34A2 pcDNA5/TO (human) and SLC34A2 pcDNA5/TO (mouse) and stable cell lines are generated from clonal isolation for both human and mouse respectively. Mouse and human stable lines are maintained in continuous culture in growth media (Dulbecco's Modified Eagle Medium: Nutrient Mixture F-12 (3:1), 10% Heat Inactivated FBS, 1% penicillin/streptomycin/FUNGIEZONE® (HYCLONE™), 20 mM HEPES, 250 μg/mL hygromycin, 5 μg/mL blasticidin). Cells are harvested from T225 cell culture flasks (CORNING®) using 0.25% Trypsin, and plated in 96 well CYTOSTAR-T™ scintillating microplates (Amersham Systems) at 40,000 cells/well in 100 μL of growth media plus 100 ng/mL of tetracycline. Cell plates are incubated overnight at 37° C. and 5% C02. The next day, compounds are serially diluted using one to three dilutions in 100% DMSO. Cell plates may remain in the incubator until ready to be assayed. A cell plate is removed from the incubator and media removed. Cells are washed 3 times with 200 μL assay buffer (137 mM NaCl, 5.4 mM KCl, 2.8 mM CaCl2), 1.2 mM MgSO4, and 14 mM Tris-HCl buffer, pH˜7.5), removing buffer in between washes. Serially diluted compounds in DMSO are further diluted 50 fold in assay buffer and 50 μL added to the CYTOSTAR-T™ assay plate, immediately followed by the addition of 50 μL of ^33P solution (PERKIN-ELMER®, Walton, Mass.; 0.05 μCi/50 μL). CYTOSTAR-T™ assay plates are covered with foil to protect from light and incubated for 60 min at RT. After the 60 min incubation, 100 μL of a stop solution (assay buffer+400 μM Phloretin) is added to the assay plate to stop ^33P uptake. The plate is immediately read on a Wallac MICROBETA® Trilux liquid scintillation counter and luminometer after stop solution is added with 1 minute count per well. Each plate may be processed separately and staggered in time so there may be no delay in counting after stop solution is added. Percent inhibition at all concentrations tested (final assay concentrations 100-0.005 μM) are calculated relative to 1% DMSO (minimum effect), and the effect of 100 μM of a fully efficacious NaPi-IIb inhibitor (maximum effect). IC50 values were calculated using a 4 parameter logistic curve fitting equation. The numbers presented are the geometric means with standard deviation (SD) calculated where n is the number of runs. Thus. Table 1 describes the relative IC50 values for Examples 1-28 against human NaPi-IIb and murine NaPi-IIb, respectively.

[5] = 5 mg/kg oral, 20% HPBCD vehicle, fasted male mice, 30 min post compound, 15 min post labelled phosphate

SMILES: CC1(C)CN(C(=O)NCCCCO)CCN1Cc1cccc(C(=O)Nc2sc3c(c2C(=O)Nc2cc(F)c(CCc4ccc(C(=O)O)cc4)c(F)c2)CCCC3)c1 [Example 1, 4-[2-[2,6-difluoro-4-[[2-[[3-[[4-(4-hydroxybutylcarbamoyl)-2,2-dimethyl-piperazin-1-yl]methyl]benzoyl]amino]-4,5,6,7-tetrahydrobenzothiophene-3-carbonyl]amino]phenyl]ethyl]benzoic Acid]
margin of NaPi-IIb inhibition with respect to inhibition of in vivo gastric emptying [1]: surprisingly advantageous margin | tolerability [2]: generally well tolerated | toxicity [2]: advantageous lack of toxicity | Percent Inhibition ([3]; 0.03 mg/kg oral gavage, PVP-VA solid dispersion formulation in water, mice): 0.75% | Percent Inhibition ([3]; 0.1 mg/kg oral gavage, PVP-VA solid dispersion formulation in water, mice): 30.61% | Percent Inhibition ([3]; 0.3 mg/kg oral gavage, PVP-VA solid dispersion formulation in water, mice): 51.21% | Percent Inhibition ([3]; 1 mg/kg oral gavage, PVP-VA solid dispersion formulation in water, mice): 66.90% | Percent Inhibition ([3]; 3 mg/kg oral gavage, PVP-VA solid dispersion formulation in water, mice): 68.71% | Percent Inhibition ([3]; 10 mg/kg oral gavage, PVP-VA solid dispersion formulation in water, mice): 75.64% | Percent Inhibition ([3]; 30 mg/kg oral gavage, PVP-VA solid dispersion formulation in water, mice): 75.83%

IC50 [4]: 40.9 nM
SMILES: COCCN(CCOC)S(=O)(=O)N1CCN(Cc2cccc(C(=O)Nc3sc4c(c3C(=O)Nc3cc(F)c(CCc5ccc(C(=O)O)cc5)c(F)c3)CCCC4)c2)C(C)(C)C1 [Example 3, 4-[2-[4-[[2-[[3-[[4-[bis(2-methoxyethyl)sulfamoyl]-2,2-dimethyl-piperazin-1-yl]methyl]benzoyl]amino]-4,5,6,7-tetrahydrobenzothiophene-3-carbonyl]amino]-2,6-difluoro-phenyl]ethyl]benzoic Acid]

Percent Inhibition [3, 5]: 52%
SMILES: CC1(C)CN(CCCC(=O)O)CCN1Cc1cccc(C(=O)Nc2sc3c(c2C(=O)Nc2cc(F)c(CCc4ccc(C(=O)O)cc4)c(F)c2)CCCC3)c1 [Example 4, 4-[2-[4-[[2-[[3-[[4-(3-carboxypropyl)-2,2-dimethyl-piperazin-1-yl]methyl]benzoyl]amino]-4,5,6,7-tetrahydrobenzothiophene-3-carbonyl]amino]-2,6-difluoro-phenyl]ethyl]benzoic Acid]

Percent Inhibition [3, 5]: 62%
SMILES: CC1(C)CN(C(=O)CN)CCN1Cc1cccc(C(=O)Nc2sc3c(c2C(=O)Nc2cc(F)c(CCc4ccc(C(=O)O)cc4)c(F)c2)CCCC3)c1 [Example 6, 4-[2-[4-[[2-[[3-[[4-(2-aminoacetyl)-2,2-dimethyl-piperazin-1-yl]methyl]benzoyl]amino]-4,5,6,7-tetrahydrobenzothiophene-3-carbonyl]amino]-2,6-difluoro-phenyl]ethyl]benzoic Acid]

IC50 [4]: 8.56 nM
SMILES: COCCCCNC(=O)N1CCN(Cc2cccc(C(=O)Nc3sc4c(c3C(=O)Nc3cc(F)c(CCc5ccc(C(=O)O)cc5)c(F)c3)CCCC4)c2)C(C)(C)C1 [Example 7, 4-[2-[2,6-difluoro-4-[[2-[[3-[[4-(4-methoxybutylcarbamoyl)-2,2-dimethyl-piperazin-1-yl]methyl]benzoyl]amino]-4,5,6,7-tetrahydrobenzothiophene-3-carbonyl]amino]phenyl]ethyl]benzoic Acid]

Percent Inhibition [3, 5]: 60%
SMILES: CC1(C)CN(C(=O)CCC(=O)O)CCN1Cc1cccc(C(=O)Nc2sc3c(c2C(=O)Nc2cc(F)c(CCc4ccc(C(N)=O)cc4)c(F)c2)CCCC3)c1 [Example 8, 4-[4-[[3-[[3-[[4-[2-(4-carbamoylphenyl)ethyl]-3,5-difluoro-phenyl]carbamoyl]-4,5,6,7-tetrahydrobenzothiophen-2-yl]carbamoyl]phenyl]methyl]-3,3-dimethyl-piperazin-1-yl]-4-oxo-butanoic Acid]

IC50 [4]: 9 nM
SMILES: CNC(=O)N1C2CCC1CN(Cc1cccc(C(=O)Nc3sc4ccccc4c3C(=O)Nc3cc(F)c(CCc4ccc(C(=O)O)cc4)c(F)c3)c1)C2 [Example 13, 4-[2-[2,6-difluoro-4-[[2-[[3-[[8-(methylcarbamoyl)-3,8-diazabicyclo[3.2.1]octan-3-yl]methyl]benzoyl]amino]benzothiophene-3-carbonyl]amino]phenyl]ethyl]benzoic Acid, Formic Acid Salt]

— patent US10934280B2, “Condensed thiophene derivatives useful as NaPi-IIb inhibitors” (Eli Lilly and Company, priority 2016, dated 2021)
